The text below walks through data of ChEMBL document CHEMBL3507680, “University of Dundee, Gates Library screen for HepG2 cell viability”.

This data set is described as follows: Human HepG2 cell viability assay in 384 well format. The format is toxicity, cell-based. Details: dose 125 nL, time 70.5 hour; cytotoxicity at 70.5 h: concentration not given beside the values. As to conditions: HepG2 cells, read-out: Inhibition.
In the case of `NS(=O)(=O)c1cccnc1Nc1cccc(Cl)c1Cl`, the cytotoxicity at 70.5 h was determined as 3.67%. As to `CCc1ncc(C(=O)c2ccc(OC)cc2)n1C`, the cytotoxicity at 70.5 h is 17.9%. Take `CN(C(=O)c1ccco1)c1nc2c(s1)CCCC2`: the cytotoxicity at 70.5 h was -3.33%. Regarding `CCc1ccc(OCCn2cccn2)cc1`, the cytotoxicity at 70.5 h came out at 23.9%. In the case of `CNc1cc(-c2cc(OC)c(OC)c(OC)c2)ncn1`, the cytotoxicity at 70.5 h was -6.66%. For `Cc1cc(C(=O)NCc2ccccn2)no1`, the cytotoxicity at 70.5 h is -6.09%. `O=C1CCCc2nccc(-c3ccccc3)c21`: the cytotoxicity at 70.5 h amounted to 23.5%.

For `Cc1cc2nc(CN(C)c3ccccc3)cc(=O)n2o1`, the cytotoxicity at 70.5 h is 3.13%. On to `Cc1nc(C)c(CN2CCOC(Cc3ccccc3Cl)C2)nc1C` (centres undefined), for which the cytotoxicity at 70.5 h is -2.34%. For `COc1ccc2c(ccn2CCC(=O)O)c1`, the cytotoxicity at 70.5 h was 27.9%. As to `CC(C)CC(NC(=O)OC(C)(C)C)C(N)=O` (centres undefined), the cytotoxicity at 70.5 h was 20.5%. Turning to `Cn1ncc2c1CCCN(C(=O)C1CCCC1)C2`, the cytotoxicity at 70.5 h was -0.407%. As for `N#Cc1ncn(CCC(=O)Nc2ccc(Cl)cc2F)n1`, the cytotoxicity at 70.5 h was -7.28%. For `CC(C)c1ccc(CNC(C)c2ccc(S(C)(=O)=O)cc2)cc1` (centres undefined), the cytotoxicity at 70.5 h is -8.82%. As to `Cc1ccc(S(=O)(=O)N2CCN(CCC#N)CC2)s1`, the cytotoxicity at 70.5 h turned out to be 7.61%. As for `CC(=O)Nc1ccc(S(=O)(=O)Nc2c(F)cccc2F)cc1`, the cytotoxicity at 70.5 h came out at 1.02%. `Cc1cc(N2CCC(c3ncc[nH]3)CC2)nc(N)n1`: the cytotoxicity at 70.5 h was -2.19%. `O=C(O)C(c1ccc(O)cc1)N1CCC(N2CCSCC2)CC1` (centres undefined): the cytotoxicity at 70.5 h is -0.773%. Under `CN(C)CCN(C)C(=O)c1cn(CC2CCCCC2)nn1` stands -18.4%; under `Cc1cccc2cc(CN3CCCN4CCC[C@H]4C3)c(=O)[nH]c12`, 1.79%; under `CCCc1noc(-c2cn(CC(=O)N(CC)CC)nn2)n1`, -4.55%.

Regarding `NCc1cn(CC2CCCN(C(=O)CC3=CCCCC3)C2)nn1` (centres undefined), the cytotoxicity at 70.5 h is -11.9%. For `CCc1cccc(CC)c1NC(=O)c1ccccc1N(C)S(C)(=O)=O`, the cytotoxicity at 70.5 h was -8.14%.

Regarding `O=C(CO)N1CCCC2(CCC(=O)N(CC3CC3)C2)C1` (centres undefined), the cytotoxicity at 70.5 h is -11%.

On to `CC(C)(CNC1CCCN(Cc2ccccc2F)C1)CN1CCOCC1` (centres undefined), for which the cytotoxicity at 70.5 h is -15.7%. Under `COCc1nc(N2CCC(CCO)CC2)c2cnn(C)c2n1` stands 2.73%; under `O=C(c1ccon1)N1CCc2ncnc(NCc3ccccn3)c2CC1`, 0.424%; under `Cc1cc(-c2nn(C)c(Cl)c2CN2CCOC(C(=O)O)C2)no1` (centres undefined), 13.8%. Turning to `N#Cc1ccccc1CN1CCC(c2nccn2CC(N)=O)CC1`, the cytotoxicity at 70.5 h was -4.95%.

In the case of `COc1ccc2c(=O)n(CC3CC3)ccc2c1OC`, the cytotoxicity at 70.5 h worked out at 2.47%. As to `CCOCc1nc2c(c(NCCNC(C)=O)n1)CCN(C(C)=O)CC2`, the cytotoxicity at 70.5 h was determined as 16.6%.

`CCCN1CCN(C(=O)c2cnccc2C)[C@H]2CS(=O)(=O)C[C@H]21`: the cytotoxicity at 70.5 h is -3.96%. With `O=C(CN1CCCC1c1nc(-c2ccccc2)no1)N1CCOCC1` (centres undefined) the figure was -4.9%; with `O=C(O)CN1CCc2onc(C(c3ccccc3)c3ccccc3)c2C1`, -3.48%. As for `COc1cc2c(cc1OC)CN(C(C(=O)O)c1c(C)nn(C)c1C)CC2` (centres undefined), the cytotoxicity at 70.5 h was -6.71%. Turning to `COc1cc(C(=O)O)cc(I)c1OCC(=O)NCCc1ccccc1`, the cytotoxicity at 70.5 h is -4.57%. Turning to `O=C(COCc1ccccc1)N1CCN(c2ccc(Cl)cn2)CC1`, the cytotoxicity at 70.5 h is -4.29%.

Take `O=C(CCC1CCCC1)N1C[C@H]2CC[C@@H]1CN(Cc1ccncc1)C2`: the cytotoxicity at 70.5 h is -11.9%. On to `O=c1[nH]c(NCc2cccc(-c3ccccc3)c2)nc2c1CCNC2`, for which the cytotoxicity at 70.5 h is -21%. Take `CC(C)(C)CN1CCCC2(CCN(C(=O)c3cn[nH]c3)C2)C1` (centres undefined): the cytotoxicity at 70.5 h is -9.2%. In the case of `Cc1ccc2c(C)c(C(=O)NCc3csc(N)n3)oc2c1`, the cytotoxicity at 70.5 h was -13%.

With `Cc1ccc2nc(C)c(C)c(C(=O)NCCCn3ccnn3)c2c1`, the cytotoxicity at 70.5 h was determined as 3.79%. With `CCn1cnnc1CCNc1nc(C)cc(C)c1C#N`, the cytotoxicity at 70.5 h is 27.1%. Turning to `CS(=O)(=O)N1CCc2[nH]cnc2C12CCN(C(=O)c1ccccc1)CC2`, the cytotoxicity at 70.5 h was -1.52%. Take `Cc1csc2c(N3CCC(NCCCc4ccncc4)CC3)ncnc12`: the cytotoxicity at 70.5 h is -7.45%. For the compound `O=C1[C@H]2CC[C@H](CN(C3CSCCSC3)C2)N1Cc1cscn1`, the cytotoxicity at 70.5 h is -7.49%. In the case of `O=C(c1cncc(N2CCC(O)(CO)CC2)n1)N1CCCC1`, the cytotoxicity at 70.5 h was -9.52%.

Consider `Cc1cc(NCc2cccnc2)n2nc(C)cc2n1`, for which the cytotoxicity at 70.5 h is -8.91%.

On to `CCc1nc(C)c(C(=O)N2C[C@H]3CC[C@@H]2CN(S(=O)(=O)N(C)C)C3)s1`, for which the cytotoxicity at 70.5 h is 8.88%. In the case of `N#Cc1ccc(CN2CCN(C(=O)C3CCC3)[C@@H]3CS(=O)(=O)C[C@@H]32)cc1`, the cytotoxicity at 70.5 h is -6.79%. On to `CC(C)(CO)NC(=O)C1CCC(=O)N(Cc2ccc(Cl)cc2)C1` (centres undefined), for which the cytotoxicity at 70.5 h was -8.51%. In the case of `Cc1ccccc1Oc1ncccc1CNS(C)(=O)=O`, the cytotoxicity at 70.5 h is 19.1%. `CN(C)c1ccc(CC(=O)N[C@@H]2CCNC[C@H]2O)cc1`: the cytotoxicity at 70.5 h is -3.58%. In the case of `CN(C)Cc1ccc(C2CCCCN2C(=O)c2cc(C3CC3)n[nH]2)cc1` (centres undefined), the cytotoxicity at 70.5 h is -5%. For the compound `Cc1cc(=O)[nH]c(SCC(=O)N(C)CC2Cc3ccccc3CN2C)n1` (centres undefined), the cytotoxicity at 70.5 h was -6.08%.

For `CN(Cc1ccccc1)CC1(O)CCCN(CC(C)(C)C)C1=O` (centres undefined), the cytotoxicity at 70.5 h was -3.59%. For the compound `Cn1nc(C(=O)N2CCCCC2c2nc3cc(F)ccc3[nH]2)ccc1=O` (centres undefined), the cytotoxicity at 70.5 h was found to be 6.51%.

Take `CCCc1nc(C(=O)N2CCCn3nc(CCC(=O)O)cc3C2)cs1`: the cytotoxicity at 70.5 h is -9.99%. With `CSc1ccc(S(=O)(=O)N2CCCCC2CCNC(C)=O)cc1` (centres undefined) the figure was -9.19%; with `CSc1ccccc1C(C(=O)O)N1CCN(Cc2ccccn2)CC1` (centres undefined), 17%; with `Cc1nc(CN2CCCC(CCc3ccc(F)cc3F)C2)c[nH]1` (centres undefined), -1.86%.

As for `c1ccc(-c2noc3c2CN(CC2CC2)CC3)cc1`, the cytotoxicity at 70.5 h is -3.25%.

For the compound `O=C(O)[C@@H]1CN(C(=O)c2cc(C3CC3)n[nH]2)C[C@H]1c1cccc(F)c1`, the cytotoxicity at 70.5 h was -9.94%. Take `Cn1ccnc1CN1C[C@@H](CN2CCC(CO)CC2)[C@@H](CO)C1`: the cytotoxicity at 70.5 h was -7.99%. With `CN1CCCC2(CCN(C(=O)CCn3cncn3)C2)C1=O` (centres undefined) the figure was -10.5%. Take `Cc1nc[nH]c1CN1C[C@@H]2CC[C@H](C1)N(C(=O)CCNS(C)(=O)=O)C2`: the cytotoxicity at 70.5 h is -1.67%. Regarding `CN1CCCC1c1ccc(C(=O)N2CCc3ccccc3C2)s1` (centres undefined), the cytotoxicity at 70.5 h stood at 17.6%.

In the case of `COc1cccc(OCc2cc(C(=O)NC[C@H]3CCCN3)n[nH]2)c1`, the cytotoxicity at 70.5 h is -4.69%.

Consider `C[C@@H]1CN(C(=O)c2cnc(C3CC3)nc2)CC[C@@]1(O)C1CCOCC1`, for which the cytotoxicity at 70.5 h is -8.12%.

For `CC(C)n1ccnc1C1CCN(Cc2ccc(Cl)c(F)c2)CC1`, the cytotoxicity at 70.5 h was -5.05%. For the compound `COCc1nc(CN2CCC3(CCCO3)CCC2=O)no1` (centres undefined), the cytotoxicity at 70.5 h is -7.37%.

With `Cc1ccc(C#N)c(N2CCC(c3nccn3Cc3cscn3)CC2)n1`, the cytotoxicity at 70.5 h was -8.13%.

For the compound `CCOCCC(=O)N1CCCC(c2ncc[nH]2)C1` (centres undefined), the cytotoxicity at 70.5 h was -0.67%. In the case of `O=C(CCC1CCN(Cc2ncc[nH]2)CC1)Nc1ccccc1Cl`, the cytotoxicity at 70.5 h was -10.7%.

As for `COc1cccc2c1OCC(C(=O)N1CCC(N3CCOC3=O)CC1)C2` (centres undefined), the cytotoxicity at 70.5 h is -8.52%. For `CC(=O)N1CCCC1c1ccc(C(=O)N2CCOCC2)s1` (centres undefined), the cytotoxicity at 70.5 h came out at 14.5%.

`Cc1ccc(C)c(C(C(=O)O)N2CCCN(Cc3ccccn3)CC2)c1` (centres undefined): the cytotoxicity at 70.5 h was -8.23%. In the case of `O=C(c1cccnc1O)N(Cc1ccsc1)CC1CCCO1` (centres undefined), the cytotoxicity at 70.5 h is 8.65%. Regarding `CCC(=O)N1CCC(c2nnc(Cn3cccn3)n2C2CC2)CC1`, the cytotoxicity at 70.5 h was -6.95%. In the case of `Cc1nc(CCNC(=O)C2CC(=O)N(C(C)(C)C)C2)sc1C` (centres undefined), the cytotoxicity at 70.5 h was -8.11%.

On to `Cc1[nH]ccc1C(=O)N1CCC(c2nnc(Cn3cccn3)n2C)CC1`, for which the cytotoxicity at 70.5 h was -0.908%. Under `CCc1nnc(CN(C)c2nc(C3CCCC3)nc3c2cnn3C)o1` stands -6.42%; under `c1cc(-c2cnccn2)cc(-c2ccn(CCN3CCCC3)n2)c1`, 12.2%. In the case of `Cc1ccc(NC(=O)N2C[C@H]3CC[C@@H]2CN(Cc2cscn2)C3)cc1`, the cytotoxicity at 70.5 h is -6.47%. `O=C(CCc1ccccc1)C1CCCN(C(=O)c2ncc(F)cc2F)C1` (centres undefined): the cytotoxicity at 70.5 h was -3.9%. For `CC(CCN1CCn2nc(CNC(=O)N(C)C)cc2C1)c1ccccc1` (centres undefined), the cytotoxicity at 70.5 h is -6.81%.

With `Cc1nc(C2CCN(C(=O)CO)CC2)cc(N2CCOCC2)n1`, the cytotoxicity at 70.5 h is -7.87%. `CC[C@@H](CO)NC(=O)c1coc(COc2ccc(OC)cc2)n1`: the cytotoxicity at 70.5 h is -13%. In the case of `COCCNc1nc2c(c(NCc3ccncc3)n1)CCNCC2`, the cytotoxicity at 70.5 h is -7.33%.

For the compound `Clc1ccccc1C1(c2ccnc(CC3CC3)n2)CCNCC1`, the cytotoxicity at 70.5 h came out at 4.53%. Under `N#Cc1ccnc(N2CCC(c3nccn3Cc3cscn3)CC2)c1` stands 31.3%.

As to `Cc1cc(C(=O)N[C@@H]2CCNC[C@H]2O)ccc1Cl`, the cytotoxicity at 70.5 h is -6.34%. With `Fc1ccc2[nH]c(C3CCCN3CCc3ccccn3)nc2c1` (centres undefined), the cytotoxicity at 70.5 h is -8.26%. Turning to `O=C(c1ccc[nH]1)N1CCC(c2nccn2Cc2ccncc2)CC1`, the cytotoxicity at 70.5 h was -0.778%. Take `COCC1CCN(C(=O)c2cccc(S(=O)(=O)NC3CCCC3)c2)C1` (centres undefined): the cytotoxicity at 70.5 h was -6.74%. As for `CCN1CC(C(=O)N(C)Cc2ccon2)CC1=O` (centres undefined), the cytotoxicity at 70.5 h is 25.3%.

`CN(CCO)Cc1nnc(C2CCN(C(=O)c3cccnc3)CC2)n1C`: the cytotoxicity at 70.5 h is -10.6%. Regarding `CNCCc1nc2cc(Cl)ccc2[nH]1`, the cytotoxicity at 70.5 h was found to be 16.5%. Turning to `COc1ccc(C2CC(=O)c3c(O)cc(O)cc3O2)cc1O` (centres undefined), the cytotoxicity at 70.5 h is -9.21%.
